Measurements from patent US9878986B2, “Compounds for selective histone deacetylase inhibitors, and pharmaceutical composition comprising the same” (CHONG KUN DANG PHARMACEUTICAL CORP., priority 2013, dated 2018).
pIC50: −log10 of the molar value.

Assays:
HDAC 6 = target: T1, HDAC 6 (Homo sapiens, UniProt Q9UBN7); assay: Test of HDAC activities, HDAC6 (fluorimetric); type: biochemical; set-up: purchased Calbiochem 382180; settings: samples at 0.1, 1, 10, 100, 1000 nM; 37° C. 60 minutes; fluorescence Ex 390, Em 460; read-out: HDAC inhibitory activities, HDAC6
T1 sequence (Q9UBN7 1-1215): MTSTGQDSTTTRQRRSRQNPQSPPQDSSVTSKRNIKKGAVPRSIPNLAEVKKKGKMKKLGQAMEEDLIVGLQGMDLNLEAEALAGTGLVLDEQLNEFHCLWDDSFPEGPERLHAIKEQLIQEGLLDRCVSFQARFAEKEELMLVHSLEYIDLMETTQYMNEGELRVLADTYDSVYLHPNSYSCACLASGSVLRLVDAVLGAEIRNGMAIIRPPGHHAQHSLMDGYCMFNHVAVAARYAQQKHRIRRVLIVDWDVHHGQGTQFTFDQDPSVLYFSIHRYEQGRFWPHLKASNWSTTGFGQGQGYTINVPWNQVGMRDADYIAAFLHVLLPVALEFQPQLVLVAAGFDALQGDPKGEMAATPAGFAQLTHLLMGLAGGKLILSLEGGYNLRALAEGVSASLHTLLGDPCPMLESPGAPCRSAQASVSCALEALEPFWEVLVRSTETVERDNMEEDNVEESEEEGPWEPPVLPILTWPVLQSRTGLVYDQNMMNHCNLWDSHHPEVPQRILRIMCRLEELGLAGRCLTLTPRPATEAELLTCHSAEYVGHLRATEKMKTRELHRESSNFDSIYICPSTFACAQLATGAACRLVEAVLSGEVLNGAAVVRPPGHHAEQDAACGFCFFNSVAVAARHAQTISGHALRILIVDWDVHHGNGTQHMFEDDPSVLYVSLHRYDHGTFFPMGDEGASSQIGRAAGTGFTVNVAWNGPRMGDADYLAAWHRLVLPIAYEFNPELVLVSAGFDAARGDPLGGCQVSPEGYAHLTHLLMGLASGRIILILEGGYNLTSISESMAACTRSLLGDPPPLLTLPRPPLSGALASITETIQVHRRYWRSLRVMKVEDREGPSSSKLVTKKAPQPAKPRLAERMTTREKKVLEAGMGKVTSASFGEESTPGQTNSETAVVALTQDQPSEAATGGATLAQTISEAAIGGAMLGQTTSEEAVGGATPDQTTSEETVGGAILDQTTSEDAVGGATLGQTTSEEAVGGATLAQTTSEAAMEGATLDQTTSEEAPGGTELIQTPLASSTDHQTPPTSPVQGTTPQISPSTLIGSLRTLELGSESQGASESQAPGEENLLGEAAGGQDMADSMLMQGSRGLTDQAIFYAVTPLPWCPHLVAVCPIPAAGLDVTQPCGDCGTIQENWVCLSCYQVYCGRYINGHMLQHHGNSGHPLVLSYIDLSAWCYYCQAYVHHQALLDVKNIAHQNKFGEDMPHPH
Summary of the method: (§1)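 HDAC1 tested at 100, 1000 and 10000 nM; recombinant human HDAC6 at 0.1, 1, 10, 100 and 1000 nM. Reaction 60 min at 37° C, then developer for 30 min at 37° C; fluorescence read at Ex 390/Em 460.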

HDAC1 = HDAC1 (Homo sapiens, UniProt Q13547); assay: Test of HDAC activities, HDAC1 Fluorimetric Drug Discovery Assay Kit; type: biochemical; set-up: purchased Enzolifesciences BML-AK511; settings: samples at 100, 1000, 10000 nM; 37° C. 60 minutes; fluorescence Ex 390, Em 460; read-out: HDAC inhibitory activities, HDAC1
Summary of the method: as §1

Sequence of HDAC1 (Q13547 whole entry): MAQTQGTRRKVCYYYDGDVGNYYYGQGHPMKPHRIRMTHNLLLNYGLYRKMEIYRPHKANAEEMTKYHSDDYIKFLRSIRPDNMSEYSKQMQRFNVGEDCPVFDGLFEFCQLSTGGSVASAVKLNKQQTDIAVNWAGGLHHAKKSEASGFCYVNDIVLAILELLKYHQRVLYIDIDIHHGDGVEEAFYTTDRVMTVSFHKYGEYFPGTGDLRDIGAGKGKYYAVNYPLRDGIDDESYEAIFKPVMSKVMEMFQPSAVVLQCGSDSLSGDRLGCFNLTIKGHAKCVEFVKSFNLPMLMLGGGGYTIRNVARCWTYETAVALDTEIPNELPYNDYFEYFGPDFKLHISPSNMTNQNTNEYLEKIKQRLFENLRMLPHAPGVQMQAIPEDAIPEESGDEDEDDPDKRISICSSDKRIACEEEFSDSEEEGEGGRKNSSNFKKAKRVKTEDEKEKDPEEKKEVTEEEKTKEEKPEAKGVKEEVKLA

Structure (SMILES) | pIC50 (HDAC 6) | pIC50 (HDAC1)
O=C(NO)c1ccc(CN(C(=O)N2CC[C@H](F)C2)c2cccc(C(F)(F)F)n2)cc1 [Compound 829, (S)-3-fluoro-N-(4-(hydroxycarbamoyl)benzyl)-N-(6-(trifluoromethyl)pyridin-2-yl)pyrrolidine-1-carboxamide] | 8.09 | 5.80
CCN1CCN(C(=O)N(Cc2ccc(C(=O)NO)cc2)c2cccc(C(F)(F)F)n2)CC1 [Compound 826, 4-ethyl-N-(4-(hydroxycarbamoyl)benzyl)-N-(6-(trifluoromethyl)pyridin-2-yl)piperazine-1-carboxamide] | 7.93 | 5.73
O=C(NO)c1ccc(CN(C(=O)N2CCC2)c2cccc(-c3ccc4c(c3)OCO4)c2)cc1 [Compound 471, N-(3-(benzo[d][1,3]dioxol-5-yl)phenyl)-N-(4-(hydroxycarbamoyl)benzyl)azetidine-1-carboxamide] | 7.85 | 5.94
O=C(NO)c1ccc(CN(C(=O)N2CCOCC2)c2nc(-c3ccccc3)cs2)cc1 [Compound 370, N-(4-(hydroxycarbamoyl)benzyl)-N-(4-phenylthiazol-2-yl)morpholine-4-carboxamide] | 9.00 | 6.15
O=C(NO)c1ccc(CN(C(=O)N2CCOCC2)c2cccc(-c3cccnc3)c2)cc1 [Compound 262, N-(4-(hydroxycarbamoyl)benzyl)-N-(3-(pyridin-3-yl)phenyl)morpholine-4-carboxamide] | 9.00 | 6.79
O=C(NO)c1ccc(CN(C(=O)N2CCOCC2)c2cccc(Br)c2)c(F)c1 [Compound 487, N-(3-bromophenyl)-N-(2-fluoro-4-(hydroxycarbamoyl)benzyl)morpholine-4-carboxamide] | 8.15 | 6.75
O=C(NO)c1ccc(CN(C(=O)N2CCCOCC2)c2ccc(C(F)(F)F)cc2)cc1 [Compound 580, N-(4-(hydroxycarbamoyl)benzyl)-N-(4-(trifluoromethyl)phenyl)-1,4-oxazepane-4-carboxamide] | 7.68 | 6.18
O=C(NO)c1ccc(CN(C(=O)N2CCN(Cc3ccccc3)CC2)c2ccccn2)cc1 [Compound 355, 4-benzyl-N-(4-(hydroxycarbamoyl)benzyl)-N-(pyridin-2-yl)piperazine-1-carboxamide] | 8.30 | 5.63
CCN1CCN(C(=O)N(Cc2ccc(C(=O)NO)cc2)c2cccc(CF)c2)CC1 [Compound 765, 4-ethyl-N-(3-(fluoromethyl)phenyl)-N-(4-(hydroxycarbamoyl)benzyl)piperazine-1-carboxamide] | 8.74 | 6.36
O=C(NO)c1ccc(CN(C(=O)N2CCOCC2)c2cccc(-c3ccc4c(c3)OCO4)c2)cc1 [Compound 418, N-(3-(benzo[d][1,3]dioxol-5-yl)phenyl)-N-(4-(hydroxycarbamoyl)benzyl)morpholine-4-carboxamide] | 8.70 | 6.72
O=C(NO)c1ccc(CN(C(=O)N2CCC(O)CC2)c2cccc(-c3ccc4c(c3)OCO4)c2)cc1 [Compound 463, N-(3-(benzo[d][1,3]dioxol-5-yl)phenyl)-4-hydroxy-N-(4-(hydroxycarbamoyl)benzyl)piperidine-1-carboxamide] | 8.52 | 6.55
CCN1[C@H](C)CN(C(=O)N(Cc2ccc(C(=O)NO)cc2)c2cccc(C(F)(F)F)c2)C[C@@H]1C [Compound 797, (3S,5R)-4-ethyl-N-(4-(hydroxycarbamoyl)benzyl)-3,5-dimethyl-N-(3-(trifluoromethyl)phenyl)piperazine-1-carboxamide] | 8.70 | 5.80
CC1CCN(C(=O)N(Cc2ccc(C(=O)NO)cc2)c2cccc(C(F)(F)F)c2)CC1 [Compound 459, N-(4-(hydroxycarbamoyl)benzyl)-4-methyl-N-(3-(trifluoromethyl)phenyl)piperidine-1-carboxamide] | 7.85 | 5.13
CC(=O)N1CCN(C(=O)N(Cc2ccc(C(=O)NO)cc2)c2cccc(C(F)(F)F)c2)CC1 [Compound 494, 4-acetyl-N-(4-(hydroxycarbamoyl)benzyl)-N-(3-(trifluoromethyl)phenyl)piperazine-1-carboxamide] | 9.00 | 6.16
O=C(NO)c1ccc(CN(C(=O)N2CCN(c3ccccc3)CC2)c2cccc(C(F)(F)F)c2)cc1 [Compound 717, N-(4-(hydroxycarbamoyl)benzyl)-4-phenyl-N-(3-(trifluoromethyl)phenyl)piperazine-1-carboxamide] | 7.62 | 5.62
CN1CCN(C(=O)N(Cc2ccc(C(=O)NO)cc2)c2ccc(F)cc2F)CC1 [Compound 416, N-(2,4-difluorophenyl)-N-(4-(hydroxycarbamoyl)benzyl)-4-methylpiperazine-1-carboxamide] | 8.70 | 6.03
O=C(NO)c1ccc(CN(C(=O)N2CCOCC2)c2cccc(CO)c2)cc1 [Compound 499, N-(4-(hydroxycarbamoyl)benzyl)-N-(3-(hydroxymethyl)phenyl)morpholine-4-carboxamide] | 8.30 | 5.44
COc1ccccc1N1CCN(C(=O)N(Cc2ccc(C(=O)NO)cc2)c2ccc(C)cc2F)CC1 [Compound 454, N-(2-fluoro-4-methylphenyl)-N-(4-(hydroxycarbamoyl)benzyl)-4-(2-methoxyphenyl)piperazine-1-carboxamide] | 8.30 | 5.88
Cc1ccc(N(Cc2ccc(C(=O)NO)cc2)C(=O)N2CCCCC2)c(F)c1 [Compound 438, N-(2-fluoro-4-methylphenyl)-N-(4-(hydroxycarbamoyl)benzyl)piperidine-1-carboxamide] | 8.40 | 5.76
O=C(NO)c1ccc(CN(C(=O)N2CCOCC2)c2cccc(-c3ccc4[nH]ccc4c3)c2)cc1 [Compound 263, N-(3-(1H-indol-5-yl)phenyl)-N-(4-(hydroxycarbamoyl)benzyl)morpholine-4-carboxamide] | 8.70 | 7.12
CC1CN(C(=O)N(Cc2ccc(C(=O)NO)cc2)c2ccc(Cl)c(C(F)(F)F)c2)CC(C)O1 (stereo not shown) [Compound 392, N-(4-chloro-3-(trifluoromethyl)phenyl)-N-(4-(hydroxycarbamoyl)benzyl)-2,6-dimethylmorpholine-4-carboxamide] | 8.30 | 5.54
O=C(NO)c1ccc(CN(C(=O)N2CCOCC2)c2ccccc2OC(F)(F)F)cc1 [Compound 771, N-(4-(hydroxycarbamoyl)benzyl)-N-(2-(trifluoromethoxy)phenyl)morpholine-4-carboxamide] | 7.19 | < 5.00
COc1ccccc1N1CCN(C(=O)N(Cc2ccc(C(=O)NO)cc2)c2ccc(F)c(Cl)c2)CC1 [Compound 481, N-(3-chloro-4-fluorophenyl)-N-(4-(hydroxycarbamoyl)benzyl)-4-(2-methoxyphenyl)piperazine-1-carboxamide] | 7.82 | 5.68
O=C(NO)c1ccc(CN(C(=O)N2CCCCC2)c2ccc(F)cc2F)cc1 [Compound 414, N-(2,4-difluorophenyl)-N-(4-(hydroxycarbamoyl)benzyl)piperidine-1-carboxamide] | 9.00 | 5.93
O=C(NO)c1ccc(CN(C(=O)N2CCOCC2)c2cccc(-c3ccoc3)c2)cc1 [Compound 402, N-(3-(furan-3-yl)phenyl)-N-(4-(hydroxycarbamoyl)benzyl)morpholine-4-carboxamide] | 8.52 | 6.77
O=C(NO)c1ccc(CN(C(=O)N2CCC(O)CC2)c2cccc(-c3ccc4c(c3)OCO4)c2)c(F)c1 [Compound 513, N-(3-(benzo[d][1,3]dioxol-5-yl)phenyl)-N-(2-fluoro-4-(hydroxycarbamoyl)benzyl)-4-hydroxypiperidine-1-carboxamide] | 7.82 | 6.18
